# System: K14 Rac1 animal model for psoriasis
# Experiment: K14 V12 Rac1 mouse model of psoriasis, IP treatment
# Type: in vivo
# Conditions: IP 10 mg/kg every other day, 20 treatments
# Experimental: FIG. 1: IP treatment with benzamil ameliorates phenotype in a mouse model of psoriasis. […] (c) IP efficacy was dose-dependent (2.1-1.4-0.7 mg/kg 20 treatments) and distinct from another ENAC blocker Amiloride (10 mg/kg).
# FIG. 4: Benzamil alter Rac/STAT3 signaling, has effect on human psoriatic keratinocytes. […] Effects on Rac1 and PSTAT3 by Benzamil (10 uM) were validated in human primary psoriatic keratinocytes (Rac1-green, PSTAT3-red, DNA-blue) (b).
# Mice overexpressing a K14 driven hyperactive V12 Rac1 mutant display clinical-histologic features mimicking human psoriasis including hyperkeratosis, erythema, Koebnerization, Auspitz sign, arthritis, onychodystrophy, marked psoriasiform hyperplasia, parakeratosis, Munro microabcesses, dilated rete ridge blood vessels and characteristic immune infiltrates. Rac1 mouse and human psoriasis skin show similar epidermal thickness, suprabasilar Ki67, and increased expression of IL 1, 6, 17, 23, 36/CCL 2, 5, 17, 20/TNFα/TGFα/CARD14/IFIH1/IRFs, NFKB, STAT3 activation/β defensins/Act1/IL17R. Transcriptional comparison of psoriasis susceptibility genes in Rac1 mouse and human psoriatic skin show marked overlap of both epidermal and immune pathways. […] See, for example Winge et al. Journal of Investigative Dermatology (2014) 134, S9-S27.
# Benzamil attenuates Rac1-mediated psoriasis in a mouse model. In a K14 Rac1 animal model for psoriasis, Benzamil was injected ip every other day for 0, 10 and 20 injections of (2 mg/kg), or PBS.
# In psoriasis keratinocytes, cytokine-mediated nuclear translocation of PSTAT3 and NFκB is reduced following Benzamil treatment.
compound,measurement,value
"N=C(N)NC(=O)c1nc(Cl)c(N)nc1N [Amiloride, amiloride]",Edema,reduced
same,Overall effect of IP treatment,Little or no effect
same,Psoriasiform hyperplasia (histology),retained
same,"Rac1 activation, ki67 and TGFα expression and immune cell infiltration (CD3+/cd11c+)",high
same,Scaling,did not have distinct effect
